This passage reports IC50 results from ChEMBL document CHEMBL3886716, “Methods of modulating the activity of the MC5 receptor and treatment of conditions related to this receptor” (2016).

The assay addresses Melanocortin receptor 5 (Homo sapiens, UniProt P33032). Put plainly: Radioligand Binding Assay: Assessments of compound binding to human MC5R (hMC5R)) by displacement of an 125I-labeled NDP-MSH receptor ligand peptide were performed essentially as described in the data sheets produced by Perkin Elmer to accompany their frozen hMC5R membranes (Perkin Elmer catalog number RBXMC5M400UA). [125I] NDP-MSH: Radiolabeled in House and Purified by HPLC: Na125I (0.5 mCi, 17.4 Ci/mg) was added to 50 μL sodium phosphate (50 mM, pH 7.4) in an eppendorf tube precoated with IODOGEN. After incubation for 10 mins the phosphate buffer containing the iodine was added to NDP-MSH (10 μl at 1 mg/mL) in a separate eppendorf tube. This was incubated for a further 10 mins. The iodinated NDP-MSH was purified by HPLC on a Zorbax SB 300 column using solvent A: 0.05% TFA and solvent B: 90% acetonitrile 0.045% TFA with a linear gradient, 0-67% B over 60 mins. The 125I NDP-MSH eluted at 52 mins after the unlabeled starting material (48 min) and was counted and stored in the freezer. […] Incubation buffer: 25 mM HEPES-KOH (pH 7.0), 1.5 mM CaCl2, 1 mM MgSO4, 0.1 M NaCl, 1 mM 1,10-phenanthroline, and 1 Complete™ protease inhibitor tablet/100 mL (Roche, catalog number 1873580). Perkin Elmer frozen hMC5 membranes: catalog number RBXMC5M400UA, 0.4 mL/vial; 400 microassays/vial, 0.78 mg/mL protein concentration. Vials of frozen membranes were thawed rapidly immediately before use, diluted with binding buffer and vortexed. Resuspended membranes were kept on ice until they were added to the wells of the plate. Assays were performed in 96 well polypropylene plates. […] This was incubated for 1 hr at 37° C.

Molecules are shown by their SMILES. A value given as a limit tells only on which side of the number the result lay.

As a reminder, the IC50 is the midpoint of a concentration-inhibition curve.

Chain of Melanocortin receptor 5 (P33032 whole entry): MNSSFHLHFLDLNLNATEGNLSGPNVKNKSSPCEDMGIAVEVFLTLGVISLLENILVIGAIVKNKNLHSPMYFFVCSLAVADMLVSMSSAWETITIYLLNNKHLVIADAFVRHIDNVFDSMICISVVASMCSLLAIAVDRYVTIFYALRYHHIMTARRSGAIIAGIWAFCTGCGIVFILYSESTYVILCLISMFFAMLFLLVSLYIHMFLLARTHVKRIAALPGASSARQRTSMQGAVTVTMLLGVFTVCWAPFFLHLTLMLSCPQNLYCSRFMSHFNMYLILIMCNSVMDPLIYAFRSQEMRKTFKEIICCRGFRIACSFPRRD

On to `N=C(N)NCCC[C@@H]1N[C@H](CNC(=O)/C=C/c2ccc(Cl)cc2)CCN(CC(c2ccccc2)c2ccccc2)C1=O`, for which the IC50 was below 0.1 µM.
For `N=C(N)NCCC[C@@H]1N[C@H](CNC(=O)c2ccc3cc(O)ccc3c2)CCN(CC(c2ccccc2)c2ccccc2)C1=O` the value was below 0.1 µM; for `N=C(N)NCCC[C@@H]1N[C@H](CNC(=O)c2cccc(Oc3ccccc3)c2)CCN(CC(c2ccccc2)c2ccccc2)C1=O`, below 0.1 µM; for `N=C(N)NCCC[C@@H]1N[C@H](CNC(=O)c2ccc3ccccc3c2)CCN(CCc2ccc(Cl)cc2Cl)C1=O`, below 1 µM.
For `O=C(/C=C/c1ccc(Cl)cc1)NC[C@@H]1CCN(CC(c2ccccc2)c2ccccc2)C(=O)[C@H](CC2CCCCC2)N1` the value was below 1 µM.
As to `N=C(N)NCCC[C@@H]1N[C@H](CNC(=O)c2ccc3ccccc3c2)CCN(CCc2ccc(Cl)c(Cl)c2)C1=O`, the IC50 is below 10 µM.
For the compound `N=C(N)NCCC[C@@H]1N[C@H](CNC(=O)c2ccc(Oc3ccccc3)cc2)CCN(CC(c2ccccc2)c2ccccc2)C1=O`, the IC50 is below 1 µM.
